Measured values reported in US7915022B2, “Carbonyl reductase, gene thereof and method of using the same” (priority 2004, dated 2011).

How the values were obtained:
[1] = tested on: polypeptide consisting of the amino acid sequence shown in SEQ ID NO: 4 (carbonyl reductase), cell-free extract of E. coli HB101 (pNTOM4); assay: Substrate specificity of polypeptide produced by transformant E. coli HB101 (pNTOM4); assay type: biochemical, Ogataea minuta var. minuta NBRC0975; conditions: 1 mM substrate, 0.25 mM NADPH, pH 6.5, 30° C., 1 min; relative to activity on CBPB as 100%
Experimental: (§1) In 100 mM phosphate buffer (pH 6.5) containing 0.33% (v/v) dimethyl sulfoxide were dissolved a carbonyl compound to be a substrate to a final concentration of 1 mM, and a coenzyme NADPH to a final concentration of 0.25 mM, respectively. Thereto was added a cell-free extract of E. coli HB101 (pNTOM4) or E. coli HB101 (pNTOM3) prepared in Example 7, and the mixture was reacted at 30° C. for 1 min. The reduction activity on each carbonyl compound was calculated from the rate of decrease in the absorbance of the reaction mixture at a wavelength of 340 nm, and shown in Table 2 as a value relative to the activity on (3S)-1-chloro-3-tert-butoxycarbonylamino-4-phenyl-2-butanone as 100%.

[2] = tested on: polypeptide consisting of the amino acid sequence shown in SEQ ID NO: 3 (carbonyl reductase), cell-free extract of E. coli HB101 (pNTOM3); assay: Substrate specificity of polypeptide produced by transformant E. coli HB101 (pNTOM3); assay type: biochemical, Ogataea minuta var. minuta NBRC0975; conditions: 1 mM substrate, 0.25 mM NADPH, pH 6.5, 30° C., 1 min; relative to activity on CBPB as 100%
Experimental: as §1

Structure (SMILES) | relative activity (%) E. coli HB101 (pNTOM4) [1] [%] | relative activity (%) E. coli HB101 (pNTOM3) [2] [%]
CCOC(=O)CC(=O)CCl [ethyl 4-chloroacetoacetate] | 22 | 4547
O=Cc1cccc([N+](=O)[O-])c1 [m-nitrobenzaldehyde] | 29 | 851
CC(=O)c1ccc(Cl)cc1 [4′-chloroacetophenone] | 9 | 35
CC(=O)CC(=O)OCc1ccccc1 [benzyl acetoacetate] | 4 | 883
CCC=O [propionaldehyde] | 0 | 99
CC(=O)C(C)=O [diacetyl] | 5 | 444
CC(=O)CC(C)=O [acetylacetone] | 0 | 23
CCOC(=O)CC(=O)COC(C)=O [ethyl 4-acetoxyacetoacetate] | 1 | 465
CC(C)=O [acetone] | 0 | 47
CCCCCCC(C)=O [2-octanone] | 3 | 808
O=C1CCCc2ccccc21 [1-tetoralone] | 1 | 146
CC(=O)c1ccncc1 [4-acetylpyridine] | 0 | 98
CCCCCCCCOC(=O)CC(=O)CCl [n-octyl 4-chloroacetoacetate] | 24 | 466
O=CCCCC=O [glutaraldehyde] | 1 | 80
CC(=O)c1ccccc1 [acetophenone] | 0 | 215
CC(C)(C)OC(=O)N[C@@H](Cc1ccccc1)C(=O)CCl [CBPB, (3S)-1-chloro-3-tert-butoxycarbonylamino-4-phenyl-2-butanone] | 100 | 100
CCC(=O)Cc1ccccc1 [1-phenyl-2-butanone] | 2 | 285
CC(=O)c1ccccn1 [2-acetylpyridine] | 0 | 29
O=Cc1ccccc1[N+](=O)[O-] [o-nitrobenzaldehyde] | 89 | 1621
CC(=O)CC(=O)OC(C)(C)C [tert-butyl acetoacetate] | 2 | 1330
CCOC(=O)CC(C)=O [ethyl acetoacetate] | 0 | 137
CCOC(=O)C(=O)c1ccccc1 [ethyl benzoylformate] | 20 | 296

Structure (SMILES) | relative activity (%) E. coli HB101 (pNTOM4) [1] [%] | relative activity (%) E. coli HB101 (pNTOM3) [2] [%]
CCCCCC=O [n-hexylaldehyde] | 3 | 265
COc1ccc2c(c1)CC(=O)CC2 [7-methoxy-2-tetoralone] | 6 | 599
O=Cc1ccccc1Cl [o-chlorobenzaldehyde] | 17 | 269
CCOC(=O)C1CCC(=O)C1 (centres unmarked) [ethyl 3-oxocyclopentanecarboxylate] | 12 | 484
CC(=O)CCc1ccccc1 [benzylacetone] | 0 | 66
O=Cc1ccccn1 [2-pyridinecarbaldehyde] | 1 | 56
CCC(C)=O [2-butanone] | 0 | 22
CCOC(=O)CC(=O)CBr [ethyl 4-bromoacetoacetate] | 7 | 476
CCOC(=O)CC(=O)CN=[N+]=[N-] [ethyl 4-azideacetoacetate] | 1 | 659
CCOC(=O)C(=O)CCc1ccccc1 [ethyl 2-oxo-4-phenylbutyrate] | 106 | 127
O=C(CO)c1ccccc1 [2-hydroxyacetophenone] | 1 | 32
COC(=O)C(C)=O [methyl pyruvate] | 5 | 674
O=Cc1ccc([N+](=O)[O-])cc1 [p-nitrobenzaldehyde] | 21 | 1166
O=C(c1ccccc1)C(O)c1ccccc1 (centres unmarked) [benzoin] | 5 | 4018
C=CC(C(C)=O)C(=O)OCC (centres unmarked) [ethyl 2-eteneacetoacetate] | 10 | 2013
CCOC(=O)CC(=O)c1ccccc1 [ethyl benzoylacetate] | 0 | 1233
CC(=O)c1cccc([N+](=O)[O-])c1 [3′-nitroacetophenone] | 31 | 273
O=Cc1ccccc1 [benzaldehyde] | 1 | 81
COC(=O)CC(C)=O [methyl acetoacetate] | 0 | 8
O=C(CCl)c1cccc(Cl)c1 [2-chloro-1-(3′-chlorophenyl)ethanone] | 33 | 1301
O=CCCc1ccccc1 [3-phenylpropionaldehyde] | 7 | 2410
CCOC(=O)C(Cl)C(C)=O (centres unmarked) [ethyl 2-chloroacetoacetate] | 40 | 3309

Structure (SMILES) | relative activity (%) E. coli HB101 (pNTOM4) [1] [%] | relative activity (%) E. coli HB101 (pNTOM3) [2] [%]
CCCCCC(C)=O [2-heptanone] | 0 | 102
O=Cc1ccncc1 [pyridine-4-aldehyde] | 2 | 571
CCC(=O)c1ccccc1 [propiophenone] | 2 | 183
CCCC=O [n-butylaldehyde] | 0 | 168
O=C1CCCC1 [cyclopentanone] | 0 | 8
CC(=O)CO [hydroxyacetone] | 0 | 51
CCCCCCCCC(=O)C(=O)OCC [ethyl 2-oxodecanoate] | 5 | 985
CC(=O)c1ccc(C)cc1 [4′-methylacetophenone] | 1 | 41
CC(=O)c1cccnc1 [3-acetylpyridine] | 0 | 15
CCOC(=O)CC(=O)COCc1ccccc1 [ethyl 4-benzyloxyacetoacetate] | 8 | 1259
O=Cc1ccc(Cl)cc1 [p-chlorobenzaldehyde] | 12 | 91
COc1ccc(C(C)=O)cc1OC [3′,4′-dimethoxyacetophenone] | 4 | 51
O=Cc1cccc(Cl)c1 [m-chlorobenzaldehyde] | 17 | 344
CCOC(=O)C(C)C(C)=O (centres unmarked) [ethyl 2-methylacetoacetate] | 4 | 619
CC(=O)c1ccc(F)cc1 [4′-fluoroacetophenone] | 1 | 28
CC(=O)c1cnccn1 [acetylpyrazine] | 0 | 185
CC(C=O)c1ccccc1 (centres unmarked) [2-phenylpropionaldehyde] | 3 | 479
CC(=O)c1cccc(O)c1 [3′-hydroxyacetophenone] | 0 | 33
CCOC(=O)C(C)=O [ethyl pyruvate] | 23 | 1067
CCCCC(C)=O [2-hexanone] | 0 | 11
